From patent US12428427B2, “Methods and compositions for targeting PD-L1” (Aligos Therapeutics, Inc., priority 2021, dated 2025) come the findings set out here.

For one assay, the target named is T1, PD-1/PD-L1 interaction (Homo sapiens, UniProt Q9NZQ7).
T1 construct: expressed in transfected cells; Jurkat cells (PD-1 plus NFAT-luciferase)
As to the kind of experiment: PD-1/PD-L1 NFAT Reporter Assay. The assay is classed as cell-based. The settings on record: co-culture of PD-L1 expressing CHO cells and PD-1 overexpressing Jurkat cells, 6 hrs, NFAT luciferase. The method, then: Blocking the PD-1/PD-L1 interaction will release the inhibitory signal and results in TCR signaling and NFAT-mediated luciferase activity.
CHO cells expressing surface-bound anti-CD3 antibodies and PD-L1 were first seeded overnight and treated with the compounds. Jurkat cells overexpressing PD-1 and a luciferase construct under NFAT promoter were then immediately seeded on the monolayer of CHO cells. The co-culture was then incubated for 6 hrs at 37° C. Luciferase activity was assessed by adding the ONE-Glo reagent and measuring luminescence with a plate reader. EC50 values were determined from the fit of the dose-response curves.
(In general: Reporter assays use an easily measured gene product as a stand-in for the process of interest.)

For a further assay, the target named is PDL1/PD1 (Homo sapiens, UniProt Q9NZQ7). As to the kind of experiment: PDL1/PD1 Binding Assay. Conditions: PDL1-6×His 0.3 nM, PD1-Fc-Avi-Biotin 2.5 nM, Acceptor/Donor beads; read-out: PD-1/PD-L1 PPI IC50. The method, then: Compounds to be tested were serially diluted in DMSO, and further diluted in assay buffer (25 mM Hepes pH 7.4, 150 mM NaCl, 0.005% Tween 20, BSA 0.01%). Diluted compounds were added to the wells with final concentration of DMSO at 1%. PDL1-6×His protein was added to the wells, mixed well with compound. The plates were incubated for 30 min at room temperature. PD1-Fc-Avi-Biotin protein was added to the wells. Final concentration of PDL1 and PD1 protein is 0.3 nM and 2.5 nM, respectively. After a binding time of 30 min at room temperature, Anti-6×His Acceptor beads (final concentration 20 ug/ml) were added to the wells, and the incubation continued for 1 h. Streptavidin Donor beads (final concentration 20 ug/mL) were added at reduced light. The plates were sealed with foil and incubated in the dark for additional 1 h or overnight before reading on an Envision reader. The IC50 values were determined by fitting the curves using a four-parameter equation in Graphpad Prism 8.
Sequence of PDL1/PD1 (Q9NZQ7 19-238 limits assumed): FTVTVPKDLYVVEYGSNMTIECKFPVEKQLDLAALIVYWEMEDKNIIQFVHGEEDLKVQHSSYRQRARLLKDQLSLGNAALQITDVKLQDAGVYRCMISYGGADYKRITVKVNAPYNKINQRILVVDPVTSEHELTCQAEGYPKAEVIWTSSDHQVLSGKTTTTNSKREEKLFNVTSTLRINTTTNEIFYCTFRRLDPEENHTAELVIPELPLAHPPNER

The structures appear in SMILES notation. pEC50, pIC50: −log10 of the molar value.

T1 sequence (Q9NZQ7 19-290): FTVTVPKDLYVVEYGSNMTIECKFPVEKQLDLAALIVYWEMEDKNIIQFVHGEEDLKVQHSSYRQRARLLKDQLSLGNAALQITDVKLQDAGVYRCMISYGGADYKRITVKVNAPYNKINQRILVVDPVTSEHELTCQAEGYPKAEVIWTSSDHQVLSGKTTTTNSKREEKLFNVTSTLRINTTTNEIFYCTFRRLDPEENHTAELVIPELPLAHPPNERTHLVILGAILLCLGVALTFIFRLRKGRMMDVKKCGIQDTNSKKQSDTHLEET

Turning to `COC(=O)C1(F)CN(Cc2ccc(-c3cccc(-c4cccc(NC(=O)c5ccnn(C)c5=O)c4C)c3Cl)nc2OC)C1` [Compound C-61], the pEC50 (commonly the EC50 on a negative log10 scale, so that one unit is a factor of ten) at PD-1/PD-L1 interaction was 7.00 to 8.00. Further, the pIC50 on PDL1/PD1 was at least 8.00.

On PD-1/PD-L1 interaction, `COc1nc(-c2cccc(-c3cccc(NC(=O)c4ccnn(C)c4=O)c3Cl)c2Cl)ccc1CN1CC(OC)C1` [Compound C-8] gave a pEC50 of 7.00 to 8.00. For the same compound, the pIC50 on PDL1/PD1 was at least 8.00.

Regarding `COc1nc(-c2cccc(-c3cccc(NC(=O)c4ccnn(C)c4=O)c3Cl)c2Cl)ccc1CNC[C@H](O)C(=O)O` [Compound C-38], the negative logarithm of the EC50 (pEC50) on PD-1/PD-L1 interaction was 7.00 to 8.00. Further, on PDL1/PD1, the pIC50 is at least 8.00.

At PD-1/PD-L1 interaction, `COc1nc(-c2cccc(-c3cccc(NC(=O)c4ccnn(C)c4=O)c3C)c2Cl)ccc1CN1CC(C(=O)O)C1` [Compound C-54] gave a pEC50 of 7.00 to 8.00. For the same compound, the pIC50 on PDL1/PD1 is at least 8.00.

With `COc1nc(-c2cccc(-c3cccc(NC(=O)c4ccnn(C)c4=O)c3C)c2C)ccc1CN[C@@H]1CCOC[C@H]1O` [Compound C-70], the negative logarithm of the EC50 (pEC50) on PD-1/PD-L1 interaction was 7.00 to 8.00. Moreover, at PDL1/PD1, the pIC50 is at least 8.00.

At PD-1/PD-L1 interaction, `COc1nc(-c2cccc(-c3cccc(NC(=O)c4ccnn(C)c4=O)c3Cl)c2Cl)cc(C)c1CN1CC(C(=O)O)C1` [Compound C-88] showed a negative logarithm of the EC50 (pEC50) of 7.00 to 8.00. The pIC50 on PDL1/PD1 was at least 8.00.

Take `CCOC(=O)[C@@H]1CCN(Cc2ccc(-c3cccc(-c4cccc(NC(=O)c5ccnn(C)c5=O)c4C)c3Cl)nc2OC)C1` [Compound C-57]: the pEC50 at PD-1/PD-L1 interaction is 7.00 to 8.00. The pIC50 at PDL1/PD1 is at least 8.00.

In turn, `COc1nc(-c2cccc(-c3cccc(NC(=O)c4ccnn(C)c4=O)c3Cl)c2Cl)ccc1CN1CC(CC(=O)O)C1` [Compound C-42] gave a pEC50 at PD-1/PD-L1 interaction of 7.00 to 8.00. At PDL1/PD1, the pIC50 is at least 8.00.

With `COc1nc(-c2cccc(-c3cccc(NC(=O)c4ccnn(C)c4=O)c3Cl)c2Cl)ccc1CN1C[C@H](C(=O)O)C(C)(C)C1` [Compound C-31], the pEC50 on PD-1/PD-L1 interaction was 7.00 to 8.00. For the same compound, the pIC50 at PDL1/PD1 was at least 8.00.

On to `COc1nc(-c2cccc(-c3cccc(NC(=O)c4ccnn(C)c4=O)c3C)c2Cl)ccc1CN1CC2(C1)CN(C(C)=O)C2` [Compound C-64], for which, on PD-1/PD-L1 interaction, the pEC50 was 7.00 to 8.00. On PDL1/PD1, the pIC50 is at least 8.00.

In turn, `COc1nc(-c2cccc(-c3cccc(NC(=O)c4ccnn(C)c4=O)c3Cl)c2Cl)ccc1CN1CC(F)(C(=O)O)C1` [Compound C-19] gave a pEC50 at PD-1/PD-L1 interaction of 7.00 to 8.00. Further, the pIC50 on PDL1/PD1 is at least 8.00.

Turning to `COc1nc(-c2cccc(-c3cccc(NC(=O)c4ccnn(C)c4=O)c3C)c2Cl)cc(C)c1CNC[C@@H]1CCC(=O)N1` [Compound B-7], the pEC50 at PD-1/PD-L1 interaction is at least 8.00. Also, on PDL1/PD1, the pIC50 was at least 8.00.

Consider `COc1nc(-c2cccc(-c3cccc(NC(=O)c4cc(Cl)n[nH]c4=O)c3Cl)c2Cl)cnc1CN1CC2(CCC(=O)N2)C1` [Compound A-3], for which the pEC50 on PD-1/PD-L1 interaction was 6.00 to 7.00. Moreover, on PDL1/PD1, the pIC50 was at least 8.00.

With `CCOC(=O)C1CN(Cc2cnc(-c3cccc(-c4cccc(NC(=O)c5ccnn(C)c5=O)c4Cl)c3Cl)nc2OC)C1` [Compound C-79], the pEC50 at PD-1/PD-L1 interaction was 7.00 to 8.00. Further, the pIC50 at PDL1/PD1 was at least 8.00.

Take `COc1nc(-c2cccc(-c3cccc(NC(=O)c4ccnn(C)c4=O)c3Cl)c2Cl)ccc1CNCC(C)(C)O` [Compound C-5]: on PD-1/PD-L1 interaction, the pEC50 is 7.00 to 8.00. In addition, the pIC50 on PDL1/PD1 was at least 8.00.

As to `COc1nc(-c2cccc(-c3cccc(NC(=O)c4ccnn(C)c4=O)c3C)c2Cl)ccc1CNC1CCN(C(C)=O)C[C@@H]1O` (stereo in doubt) [Compound C-69], the pEC50 at PD-1/PD-L1 interaction was at least 8.00. Moreover, the pIC50 on PDL1/PD1 is at least 8.00.

With `COc1nc(-c2cccc(-c3cccc(NC(=O)c4ccnn(C)c4=O)c3C)c2Cl)cc(C)c1CN1CC(C(=O)O)C1` [Compound C-91], the pEC50 at PD-1/PD-L1 interaction is 7.00 to 8.00. For the same compound, at PDL1/PD1, the pIC50 was at least 8.00.

As to `COc1nc(-c2cccc(-c3cccc(NC(=O)c4ccnn(C)c4=O)c3Cl)c2Cl)ccc1CNC1CC1` [Compound C-6], the pEC50 on PD-1/PD-L1 interaction is 7.00 to 8.00. For the same compound, the pIC50 at PDL1/PD1 was at least 8.00.

For the compound `COc1nc(-c2cccc(-c3cccc(NC(=O)c4ccnn(C)c4=O)c3C)c2Cl)cnc1CN1CC[C@H](O)C1` [Compound C-87], the pEC50 at PD-1/PD-L1 interaction was at least 8.00. In addition, the pIC50 on PDL1/PD1 was at least 8.00.

For the compound `CCOC(=O)C1CN(Cc2ccc(-c3cccc(-c4cccc(NC(=O)c5ccnn(C)c5=O)c4Cl)c3Cl)nc2OC)C1` [Compound C-13], the pEC50 on PD-1/PD-L1 interaction was 7.00 to 8.00. Further, at PDL1/PD1, the pIC50 was at least 8.00.

As for `COc1nc(-c2cccc(-c3cccc(NC(=O)c4ccnn(C)c4=O)c3Cl)c2Cl)c(F)cc1CN[C@@H]1CCOC[C@@H]1O` [Compound C-75], at PD-1/PD-L1 interaction, the pEC50 is at least 8.00. Moreover, the pIC50 at PDL1/PD1 is at least 8.00.

For `COc1nc(-c2cccc(-c3cccc(NC(=O)c4ccnn(C)c4=O)c3Cl)c2Cl)ncc1CN1CC(C(=O)O)C1` [Compound C-80], the pEC50 at PD-1/PD-L1 interaction was 7.00 to 8.00. Besides, the pIC50 on PDL1/PD1 is at least 8.00.

Turning to `COc1nc(-c2cccc(-c3cccc(NC(=O)c4ccnn(C)c4=O)c3C)c2Cl)ccc1CN1CC(C)(C(=O)O)C1` [Compound C-60], the pEC50 at PD-1/PD-L1 interaction is 7.00 to 8.00. Moreover, the pIC50 at PDL1/PD1 is at least 8.00.

Regarding `COc1nc(-c2cccc(-c3cccc(NC(=O)c4ccnn(C)c4=O)c3Cl)c2Cl)cc(C)c1CNC[C@@H]1CCC(=O)N1` [Compound B-3], on PD-1/PD-L1 interaction, the pEC50 was at least 8.00. Moreover, the pIC50 on PDL1/PD1 was at least 8.00.

`COC(=O)C1(F)CN(Cc2ccc(-c3cccc(-c4cccc(NC(=O)c5ccnn(C)c5=O)c4Cl)c3Cl)nc2OC)C1` [Compound C-18]: the pEC50 at PD-1/PD-L1 interaction was 7.00 to 8.00. Further, the pIC50 on PDL1/PD1 was at least 8.00.

For the compound `COc1nc(-c2cccc(-c3cccc(NC(=O)c4ccnn(C)c4=O)c3Cl)c2Cl)ncc1CN1CC(O)C1` [Compound C-82], at PD-1/PD-L1 interaction, the pEC50 was 7.00 to 8.00. The pIC50 on PDL1/PD1 is at least 8.00.
